Where two headings read alike, the source gives them in different places.
Tests used:
DYRK1A = DYRK1A (Rattus norvegicus, UniProt Q63470); assay: DYRK1A in vitro kinase assay (33P-ATP, Woodtide substrate); format: biochemical
Procedure: (§1) Buffer A: MgCl2 (10 mM), 1 mM ethylene glycol-bis(2-aminoethylether)-N,N,N',N'-tetraacetic acid (EGTA), 1 mM dithiothreitol (DTT), 25 mM Tris-HCl pH 7.5, 50 μg heparin/mL.
(§2) Controls were performed with appropriate dilutions of dimethylsulfoxide (DMSO). IC50 values were calculated from dose-response curves established by Sigma-Plots. The GSK-3, CK1, DYRK1A and CLK1 peptide substrates were obtained from Proteogenix (Oberhausbergen, France).
(§3) CDK5/p25. (Human, recombinant) was prepared as previously described. […] ATP (3000 Ci/mmol; 10 mCi/mL) in a final volume of 30 μL. After 30 min incubation at 30 °C, 25 μL aliquots of supernatant were spotted onto sheets of Whatman P81 phosphocellulose paper, and 20 s later, the filters were washed eight times (for at least 5 min each time) in a solution of 10 mL phosphoric acid/L of water. The wet filters were counted in the presence of 1 mL ACS (Amersham) scintillation fluid.

CK1δ/ε = CK1δ/ε in vitro kinase assay (33P-ATP, CK1-specific peptide substrate); format: biochemical, Porcine; conditions: 15 μM ATP, 30 min at 30 °C, triplicate; <50% inhibition at 10 µM reported as >10
Procedure: as §2, §3
CK1δ/ε. (Porcine brain, native) was assayed as described for CDK5/p25, but using the CK1-specific peptide substrate […]pSAYSITA [23].

CDK5/p25 = biological target: T1, CDK5/p25 (Homo sapiens, UniProt Q00535); assay: CDK5/p25 in vitro kinase assay (33P-ATP, histone H1); format: biochemical
T1 construct: made in house
T1 sequence (Q00535 whole entry): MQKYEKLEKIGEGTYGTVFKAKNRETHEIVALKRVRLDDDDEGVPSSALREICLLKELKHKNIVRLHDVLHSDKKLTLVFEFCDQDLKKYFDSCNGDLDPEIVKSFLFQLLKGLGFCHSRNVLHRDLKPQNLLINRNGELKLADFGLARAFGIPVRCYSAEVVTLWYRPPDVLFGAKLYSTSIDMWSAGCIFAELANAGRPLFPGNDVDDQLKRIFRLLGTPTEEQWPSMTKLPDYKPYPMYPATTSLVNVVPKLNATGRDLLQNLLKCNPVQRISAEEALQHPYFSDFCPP
T1 sequence (Q15078 99-307 partner limits assumed): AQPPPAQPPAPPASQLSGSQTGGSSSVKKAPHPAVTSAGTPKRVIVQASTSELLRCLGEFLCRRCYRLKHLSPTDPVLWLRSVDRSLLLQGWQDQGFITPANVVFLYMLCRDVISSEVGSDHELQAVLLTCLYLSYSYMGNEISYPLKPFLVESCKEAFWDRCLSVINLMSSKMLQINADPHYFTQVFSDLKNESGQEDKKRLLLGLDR
Procedure: as §1, §2, §3

GSK-3α/β = GSK-3α/β in vitro kinase assay (33P-ATP, GS-1 peptide); format: biochemical, Porcine; conditions: 15 μM ATP, 30 min at 30 °C, triplicate; <50% inhibition at 10 µM reported as >10; read-out: GSK3 IC50
Procedure: as §1, §2, §3
GSK-3α/β. (Porcine brain, native) was assayed as described for CDK5/p25, but in buffer A and using a GSK-3 specific substrate (GS-1: […]pSEDEEE) (pS stands for phosphorylated serine).

[1] = 15 μM ATP, 30 min at 30 °C, triplicate, <50% inhibition at 10 µM reported as >10
[2] = 15 μM ATP, 30 min at 30 °C, triplicate, <50% inhibition at 10 µM reported as >10, read-out: CDK5 IC50

Structure (SMILES)	IC50 (CK1δ/ε) [µM]	IC50 (GSK-3α/β) [µM]	IC50 (DYRK1A) [µM]	IC50 (CDK5/p25; read-out: CDK5 IC50) [µM]	IC50 (DYRK1A; [1]) [µM]	IC50 (CDK5/p25; [2]) [µM]	IC50 (CDK5/p25) [µM]
CCN(CC)CCNC(=N)c1nc2ccc3ncnc(Nc4ccc(Br)cc4F)c3c2s1 [Compound 9e, 9-(4-Bromo-2-fluorophenylamino)-N-(2-(diethylamino)ethyl)thiazolo[5,4-f]quinazoline-2-carboxi-midamide]	> 10	2.1			> 10	> 10	
N=C(NCCN1CCCCC1)c1nc2ccc3ncnc(Nc4ccc(Br)cc4F)c3c2s1 [Compound 9b, 9-(4-Bromo-2-fluorophenylamino)-N-(2-(piperidin-1-yl)ethyl)thiazolo[5,4-f]quinazoline-2-carboxi-midamide]	> 10	0.53			> 10	> 10	
COc1ccc(Nc2ncnc3ccc4nc(C(=N)NCc5ccccc5)sc4c23)cc1 [Compound 7f, N-Benzyl-9-(4-methoxyphenylamino)thiazolo[5,4-f]quinazoline-2-carboximidamide]	> 10	2	8	> 10			
CCN(CC)CCNC(=N)c1nc2ccc3ncnc(Nc4ccc5c(c4)OCO5)c3c2s1 [Compound 8e, 9-(Benzo[d][1,3]dioxol-5-ylamino)-N-(2-(diethylamino)ethyl)thiazolo[5,4-f]quinazoline-2-carboxi-midamide]	> 10	0.8			6.5	> 10	
N=C(NCCN1CCCCC1)c1nc2ccc3ncnc(Nc4ccc(F)c(Cl)c4)c3c2s1 [Compound 10b, 9-(3-Chloro-4-fluorophenylamino)-N-(2-(piperidin-1-yl)ethyl)thiazolo[5,4-f]quinazoline-2-carboxi-midamide]	> 10	1.4			> 10	> 10	
COC(=N)c1nc2ccc3ncnc(Nc4ccc(OC)cc4)c3c2s1 [Compound 7i, Methyl 9-(4-methoxyphenylamino)thiazolo[5,4-f]quinazoline-2-carbimidate]	> 10	0.2		> 10			
COc1ccc(Nc2ncnc3ccc4nc(C(=N)NCCN5CCCC5)sc4c23)cc1 [Compound 7c, 9-(4-Methoxyphenylamino)-N-(2-(pyrrolidin-1-yl)ethyl)thiazolo[5,4-f]quinazoline-2-carboximidamide]	> 10	2	> 10	> 10			
COc1ccc(Nc2ncnc3ccc4nc(C(N)=O)sc4c23)cc1 [Compound 7h, 9-(4-Methoxyphenylamino)thiazolo[5,4-f]quinazoline-2-carboxamide]	> 10	0.3					> 10
N=C(NCCN1CCCC1)c1nc2ccc3ncnc(Nc4ccc5c(c4)OCO5)c3c2s1 [Compound 8c, 9-(Benzo[d][1,3]dioxol-5-ylamino)-N-(2-(pyrrolidin-1-yl)ethyl)thiazolo[5,4-f]quinazoline-2-carboxi-midamide]	> 10	0.36			1.1	> 10	
NC(=O)c1nc2ccc3ncnc(Nc4ccc5c(c4)OCO5)c3c2s1 [Compound 8h, 9-(Benzo[d][1,3]dioxol-5-ylamino)thiazolo[5,4-f]quinazoline-2-carboxamide]	> 10	0.77	0.8	> 10			
CN(C)CCNC(=N)c1nc2ccc3ncnc(Nc4ccc(F)c(Cl)c4)c3c2s1 [Compound 10d, 9-(3-Chloro-4-fluorophenylamino)-N-(2-(dimethylamino)ethyl)thiazolo[5,4-f]quinazoline-2-carboxi-midamide]	> 10	3			> 10	> 10	
COc1ccc(Nc2ncnc3ccc4nc(C(=N)NCCN(C)C)sc4c23)cc1 [Compound 7d, N-(2-(Dimethylamino)ethyl)-9-(4-methoxyphenylamino)thiazolo[5,4-f]quinazoline-2-carboximidamide]	> 10	> 10	> 10	> 10			
N=C(NCCN1CCCCC1)c1nc2ccc3ncnc(Nc4ccc5c(c4)OCO5)c3c2s1 [Compound 8b, 9-(Benzo[d][1,3]dioxol-5-ylamino)-N-(2-(piperidin-1-yl)ethyl)thiazolo[5,4-f]quinazoline-2-carboximi-damide]	> 10	1.1			2	> 10	
N=C(NCCN1CCCC1)c1nc2ccc3ncnc(Nc4ccc(F)c(Cl)c4)c3c2s1 [Compound 10c, 9-(3-Chloro-4-fluorophenylamino)-N-(2-(pyrrolidin-1-yl)ethyl)thiazolo[5,4-f]quinazoline-2-carboxi-midamide]	> 10	2.5			> 10	> 10	
N=C(NCc1ccccc1)c1nc2ccc3ncnc(Nc4ccc5c(c4)OCO5)c3c2s1 [Compound 8f, 9-(Benzo[d][1,3]dioxol-5-ylamino)-N-benzylthiazolo[5,4-f]quinazoline-2-carboximidamide]	> 10	2	> 10	> 10			
CCN(CC)CCNC(=N)c1nc2ccc3ncnc(Nc4ccc(OC)cc4)c3c2s1 [Compound 7e, N-(2-(Diethylamino)ethyl)-9-(4-methoxyphenylamino)thiazolo[5,4-f]quinazoline-2-carboximidamide]	> 10	1.3	4	> 10			
COc1ccc(Nc2ncnc3ccc4nc(C(=N)N(C)C)sc4c23)cc1 [Compound 7g, 9-(4-Methoxyphenylamino)-N,N-dimethylthiazolo[5,4-f]quinazoline-2-carboximidamide]	> 10	1.1	0.7	> 10			
NC(=O)c1nc2ccc3ncnc(Nc4ccc(F)c(Cl)c4)c3c2s1 [Compound 10h, 9-(3-Chloro-4-fluorophenylamino)thiazolo[5,4-f]quinazoline-2-carboxamide]	> 10	0.66					> 10
N=C(NCCN1CCCC1)c1nc2ccc3ncnc(Nc4ccc(Br)cc4F)c3c2s1 [Compound 9c, 9-(4-Bromo-2-fluorophenylamino)-N-(2-(pyrrolidin-1-yl)ethyl)thiazolo[5,4-f]quinazoline-2-carboxi-midamide]	> 10	2.2			> 10	> 10	
N=C(NCCN1CCOCC1)c1nc2ccc3ncnc(Nc4ccc5c(c4)OCO5)c3c2s1 [Compound 8a, 9-(Benzo[d][1,3]dioxol-5-ylamino)-N-(2-morpholinoethyl)thiazolo[5,4-f]quinazoline-2-carboximidamide]	> 10	0.97	2.2	> 10			

Second part, led by results:

IC50 (CK1δ/ε) [µM]	IC50 (GSK-3α/β) [µM]	IC50 (DYRK1A) [µM]	IC50 (CDK5/p25; read-out: CDK5 IC50) [µM]	Structure (SMILES)	IC50 (DYRK1A; [1]) [µM]	IC50 (CDK5/p25; [2]) [µM]	IC50 (CDK5/p25) [µM]
> 10	7.2	6.5	> 10	CN(C)C(=N)c1nc2ccc3ncnc(Nc4ccc(F)c(Cl)c4)c3c2s1 [Compound 10g, 9-(3-Chloro-4-fluorophenylamino)-N,N-dimethylthiazolo[5,4-f]quinazoline-2-carboximidamide]			
			> 10	COC(=N)c1nc2ccc3ncnc(Nc4ccc(F)c(Cl)c4)c3c2s1 [Compound 10i, Methyl 9-(3-chloro-4-fluorophenylamino)thiazolo[5,4-f]quinazoline-2-carbimidate]			
> 10	1.8	> 10	> 10	N=C(NCc1ccccc1)c1nc2ccc3ncnc(Nc4ccc(Br)cc4F)c3c2s1 [Compound 9f, N-Benzyl-9-(4-bromo-2-fluorophenylamino)thiazolo[5,4-f]quinazoline-2-carboximidamide]			
> 10	3.5			N=C(NCCN1CCOCC1)c1nc2ccc3ncnc(Nc4ccc(F)c(Cl)c4)c3c2s1 [Compound 10a, 9-(3-Chloro-4-fluorophenylamino)-N-(2-morpholinoethyl)thiazolo[5,4-f]quinazoline-2-carboximid-amide]	> 10	> 10	
> 10	0.13	0.67	> 10	NC(=O)c1nc2ccc3ncnc(Nc4ccc(Br)cc4F)c3c2s1 [Compound 9h, 9-(4-Bromo-2-fluorophenylamino)thiazolo[5,4-f]quinazoline-2-carboxamide]			
> 10	1.8			N=C(NCCN1CCOCC1)c1nc2ccc3ncnc(Nc4ccc(Br)cc4F)c3c2s1 [Compound 9a, 9-(4-Bromo-2-fluorophenylamino)-N-(2-morpholinoethyl)thiazolo[5,4-f]quinazoline-2-carboximid-amide]	> 10	> 10	
> 10	0.16		> 10	COC(=N)c1nc2ccc3ncnc(Nc4ccc(Br)cc4F)c3c2s1 [Compound 9i, Methyl 9-(4-bromo-2-fluorophenylamino)thiazolo[5,4-f]quinazoline-2-carbimidate]			
